Patent US8691865B2 (AbbVie Inc., priority 2008, dated 2014)

Each molecule was assayed against human Cav2.2 (Homo sapiens, UniProt Q00975) (assay: Assessment of calcium channel activity using FLIPR (Ca2+ influx in IMR32 cells)). Details: not given.
Format: cell-based
Method in brief: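 IC50 values derive from nonlinear sigmoidal fitting of percent inhibition, relative to inhibitor-free activity, of Ca2+ influx read by FLIPR. Cells were IMR32 human neuroblastoma, plated at 1−1.2×10^5 per well and grown 48 h at 37 °C.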

Sequence of human Cav2.2 (Q00975 whole entry): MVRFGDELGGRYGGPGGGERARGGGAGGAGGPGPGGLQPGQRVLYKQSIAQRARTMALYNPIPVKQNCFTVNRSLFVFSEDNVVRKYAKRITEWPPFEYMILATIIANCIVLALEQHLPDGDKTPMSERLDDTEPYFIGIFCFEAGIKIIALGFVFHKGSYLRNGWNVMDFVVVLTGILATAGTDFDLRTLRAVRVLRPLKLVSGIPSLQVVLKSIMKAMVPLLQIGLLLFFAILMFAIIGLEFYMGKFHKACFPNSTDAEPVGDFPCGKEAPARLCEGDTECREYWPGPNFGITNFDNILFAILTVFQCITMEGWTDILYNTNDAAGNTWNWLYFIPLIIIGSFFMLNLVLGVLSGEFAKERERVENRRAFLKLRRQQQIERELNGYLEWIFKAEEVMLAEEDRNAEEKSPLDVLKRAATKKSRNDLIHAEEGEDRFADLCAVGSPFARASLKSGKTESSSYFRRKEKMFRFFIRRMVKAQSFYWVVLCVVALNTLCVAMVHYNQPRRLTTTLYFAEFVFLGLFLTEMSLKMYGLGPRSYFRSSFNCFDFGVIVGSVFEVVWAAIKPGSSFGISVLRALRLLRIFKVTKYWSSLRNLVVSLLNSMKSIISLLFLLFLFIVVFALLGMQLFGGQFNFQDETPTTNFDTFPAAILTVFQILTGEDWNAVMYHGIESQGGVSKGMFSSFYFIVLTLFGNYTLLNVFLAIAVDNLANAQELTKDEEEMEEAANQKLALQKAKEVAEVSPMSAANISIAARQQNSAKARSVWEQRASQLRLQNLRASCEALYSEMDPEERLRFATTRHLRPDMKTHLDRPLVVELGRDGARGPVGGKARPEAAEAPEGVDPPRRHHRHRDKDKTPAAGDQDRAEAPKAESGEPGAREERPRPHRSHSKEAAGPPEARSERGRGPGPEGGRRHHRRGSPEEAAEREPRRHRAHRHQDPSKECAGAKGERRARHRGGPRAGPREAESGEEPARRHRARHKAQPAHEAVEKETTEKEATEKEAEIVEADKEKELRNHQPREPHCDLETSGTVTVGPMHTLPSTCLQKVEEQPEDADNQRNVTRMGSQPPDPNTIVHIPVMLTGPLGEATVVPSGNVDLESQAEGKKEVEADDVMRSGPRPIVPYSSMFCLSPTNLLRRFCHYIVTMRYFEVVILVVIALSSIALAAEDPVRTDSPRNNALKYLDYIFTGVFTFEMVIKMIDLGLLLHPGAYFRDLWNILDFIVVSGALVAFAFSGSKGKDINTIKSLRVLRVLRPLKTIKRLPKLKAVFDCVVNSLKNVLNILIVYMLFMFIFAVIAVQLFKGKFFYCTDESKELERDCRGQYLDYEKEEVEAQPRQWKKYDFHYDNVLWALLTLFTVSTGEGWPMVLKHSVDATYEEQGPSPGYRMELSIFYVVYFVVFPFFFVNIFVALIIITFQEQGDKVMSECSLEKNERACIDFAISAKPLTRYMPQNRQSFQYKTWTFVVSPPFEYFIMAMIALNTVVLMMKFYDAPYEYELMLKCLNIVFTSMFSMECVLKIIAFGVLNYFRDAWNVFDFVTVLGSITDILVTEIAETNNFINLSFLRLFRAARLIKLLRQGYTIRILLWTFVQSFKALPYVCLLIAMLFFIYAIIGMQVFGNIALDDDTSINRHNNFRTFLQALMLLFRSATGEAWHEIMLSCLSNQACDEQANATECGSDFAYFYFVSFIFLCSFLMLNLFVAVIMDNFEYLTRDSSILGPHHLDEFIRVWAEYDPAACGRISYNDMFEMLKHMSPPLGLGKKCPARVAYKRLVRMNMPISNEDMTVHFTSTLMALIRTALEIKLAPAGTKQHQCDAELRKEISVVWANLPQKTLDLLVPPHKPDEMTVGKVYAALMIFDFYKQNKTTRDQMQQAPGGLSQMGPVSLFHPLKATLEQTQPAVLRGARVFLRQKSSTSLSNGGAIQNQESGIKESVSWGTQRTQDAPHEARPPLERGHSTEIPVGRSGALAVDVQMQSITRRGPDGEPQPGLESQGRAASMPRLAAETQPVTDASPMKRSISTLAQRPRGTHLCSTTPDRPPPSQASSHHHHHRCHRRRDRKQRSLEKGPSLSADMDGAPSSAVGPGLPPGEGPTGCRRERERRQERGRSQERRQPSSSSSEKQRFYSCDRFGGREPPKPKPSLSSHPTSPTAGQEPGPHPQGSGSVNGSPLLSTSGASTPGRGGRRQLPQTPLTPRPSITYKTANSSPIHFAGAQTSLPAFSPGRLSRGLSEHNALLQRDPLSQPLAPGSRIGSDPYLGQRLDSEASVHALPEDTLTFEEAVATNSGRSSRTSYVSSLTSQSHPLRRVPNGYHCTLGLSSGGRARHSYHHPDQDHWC
Sequence of human Cav2.2 (P54289 25-956 partner limits assumed): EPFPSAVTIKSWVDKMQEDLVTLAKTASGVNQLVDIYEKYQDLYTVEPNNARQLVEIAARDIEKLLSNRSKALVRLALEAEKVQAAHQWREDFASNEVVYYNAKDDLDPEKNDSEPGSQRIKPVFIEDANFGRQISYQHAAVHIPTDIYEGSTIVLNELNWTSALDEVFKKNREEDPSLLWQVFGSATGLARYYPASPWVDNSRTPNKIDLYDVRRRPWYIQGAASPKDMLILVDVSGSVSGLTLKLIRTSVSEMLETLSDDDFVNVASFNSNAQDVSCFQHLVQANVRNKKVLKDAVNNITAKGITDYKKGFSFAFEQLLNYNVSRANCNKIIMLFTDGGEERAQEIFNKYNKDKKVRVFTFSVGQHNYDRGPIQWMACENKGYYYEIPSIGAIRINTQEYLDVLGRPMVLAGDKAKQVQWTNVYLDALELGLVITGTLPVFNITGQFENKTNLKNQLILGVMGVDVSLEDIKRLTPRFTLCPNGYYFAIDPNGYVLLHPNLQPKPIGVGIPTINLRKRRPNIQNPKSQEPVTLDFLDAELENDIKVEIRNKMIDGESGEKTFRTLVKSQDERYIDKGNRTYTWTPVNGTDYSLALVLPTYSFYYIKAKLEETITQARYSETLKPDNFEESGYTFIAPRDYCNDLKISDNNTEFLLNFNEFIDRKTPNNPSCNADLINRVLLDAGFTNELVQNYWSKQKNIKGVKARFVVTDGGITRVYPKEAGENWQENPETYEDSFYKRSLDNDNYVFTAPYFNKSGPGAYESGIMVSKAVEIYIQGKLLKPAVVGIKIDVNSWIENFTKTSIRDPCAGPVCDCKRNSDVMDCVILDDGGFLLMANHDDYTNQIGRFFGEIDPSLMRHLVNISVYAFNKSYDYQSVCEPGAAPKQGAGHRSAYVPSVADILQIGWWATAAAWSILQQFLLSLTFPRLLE
Sequence of human Cav2.2 (P54289 957-1103 partner limits assumed): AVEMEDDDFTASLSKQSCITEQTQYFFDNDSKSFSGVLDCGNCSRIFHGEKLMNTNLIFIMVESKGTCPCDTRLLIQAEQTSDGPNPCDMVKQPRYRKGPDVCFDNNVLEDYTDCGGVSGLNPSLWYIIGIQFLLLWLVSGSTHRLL
Sequence of human Cav2.2 (P54284 whole entry partner): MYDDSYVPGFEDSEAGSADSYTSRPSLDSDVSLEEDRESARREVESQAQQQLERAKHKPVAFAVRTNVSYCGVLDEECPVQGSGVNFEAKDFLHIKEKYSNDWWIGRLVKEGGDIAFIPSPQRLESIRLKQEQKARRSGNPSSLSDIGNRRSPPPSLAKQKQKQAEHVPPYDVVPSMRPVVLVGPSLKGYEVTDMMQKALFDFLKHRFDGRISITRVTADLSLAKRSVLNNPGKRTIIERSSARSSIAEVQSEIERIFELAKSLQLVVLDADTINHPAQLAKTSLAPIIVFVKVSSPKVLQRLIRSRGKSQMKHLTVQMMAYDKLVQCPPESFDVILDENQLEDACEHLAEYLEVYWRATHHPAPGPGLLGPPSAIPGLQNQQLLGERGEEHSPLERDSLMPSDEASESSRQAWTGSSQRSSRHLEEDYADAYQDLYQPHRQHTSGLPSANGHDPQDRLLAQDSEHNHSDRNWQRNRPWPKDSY

Q: With `CN[C@@H](CC(C)C)C(=O)N[C@H]1CC[C@@H]2CN(c3ncc(C(F)(F)F)cc3Br)C[C@@H]21` [Example 766, N-{(3aR,4S,6aS)-2-[3-bromo-5-(trifluoromethyl)pyridin-2-yl]octahydrocyclopenta[c]pyrrol-4-yl}-N^2-methyl-L-leucinamide] as the molecule, how does the IC50 read?
A: The IC50 was 0.63 µM.

Q: `CN[C@@H](CC(C)C)C(=O)N[C@H]1CC[C@@H]2CN(c3ccc(F)cc3C(F)(F)F)C[C@@H]21` [Example 737, N-{(3aR,4S,6aS)-2-[4-fluoro-2-(trifluoromethyl)phenyl]octahydrocyclopenta[c]pyrrol-4-yl}-N^2-methyl-L-leucinamide] was tested. Which IC50 did it give?
A: Its IC50 is 0.36 µM.

Q: How did the IC50 turn out when `CN[C@H](C(=O)N[C@H]1CC[C@@H]2CN(c3ccc(C(F)(F)F)cn3)C[C@@H]21)C(C)C` [Example 763, N^2-methyl-N-{(3aR,4S,6aS)-2-[5-(trifluoromethyl)pyridin-2-yl]octahydrocyclopenta[c]pyrrol-4-yl}-L-valinamide] was run?
A: Its IC50 is 12.3 µM.

Q: How did the IC50 turn out when `CCC[C@H](NC)C(=O)N[C@@H]1CC[C@H]2CN(Cc3ccccc3)C[C@H]21` [Example 352, N^1-[(3aS,4R,6aR)-2-benzyloctahydrocyclopenta[c]pyrrol-4-yl]-N^2-methyl-L-norvalinamide] was run?
A: The IC50 was > 30 µM.

Q: For `COc1cccc2[nH]cc(CN[C@H]3CC[C@@H]4CN(c5cccc(C(F)(F)F)n5)C[C@@H]43)c12` [Example 689, (3aR,4S,6aS)-N-[(4-methoxy-1H-indol-3-yl)methyl]-2-[6-(trifluoromethyl)pyridin-2-yl]octahydrocyclopenta[c]pyrrol-4-amine], which IC50 is on record?
A: The IC50 was 0.82 µM.

Q: `CCC[C@H](NC(C)C)C(=O)N[C@H]1CC[C@@H]2CN(Cc3ccccc3)C[C@@H]21` [Example 494, N^1-[(3aR,4S,6aS)-2-benzyloctahydrocyclopenta[c]pyrrol-4-yl]-N^2-isopropyl-L-norvalinamide] was tested. Which IC50 did it give?
A: The IC50 was > 30 µM.

Q: `O=C(N[C@@H]1CC[C@H]2CN(Cc3cccc(C(F)(F)F)c3)C[C@H]21)C(c1ccccc1)c1ccccc1` (relative stereo) [Example 145, 2,2-diphenyl-N-{(3aS*,4R*,6aR*)-2-[3-(trifluoromethyl)benzyl]octahydrocyclopenta[c]pyrrol-4-yl}acetamide] was tested. Which IC50 did it give?
A: The IC50 was 1.14 µM.

Q: Which IC50 does the source give for `CN[C@H](C(=O)N[C@@H]1CC[C@H]2CN(Cc3ccc(F)cc3)C[C@H]21)C(C)C` [Example 369, N^1-[(3aS,4R,6aR)-2-(4-fluorobenzyl)octahydrocyclopenta[c]pyrrol-4-yl]-N^2-methyl-L-valinamide] here?
A: Its IC50 is > 16.4 µM.

Q: Which IC50 does the source give for `O=S(=O)(N[C@@H]1CC[C@@H]2CN(Cc3cccc(C(F)(F)F)c3)C[C@@H]21)c1cccc(C(F)(F)F)c1` [Example 188, 3-(trifluoromethyl)-N-{(3aR,4R,6aS)-2-[3-(trifluoromethyl)benzyl]octahydrocyclopenta[c]pyrrol-4-yl}benzenesulfonamide] here?
A: The IC50 was 0.85 µM.

Q: How did the IC50 turn out when `FC(F)(F)c1cccc(N2C[C@H]3CC[C@H](NCc4coc(-c5ccc(Cl)cc5)n4)[C@H]3C2)n1` [Example 741, (3aR,4S,6aS)-N-{[2-(4-chlorophenyl)-1,3-oxazol-4-yl]methyl}-2-[6-(trifluoromethyl)pyridin-2-yl]octahydrocyclopenta[c]pyrrol-4-amine] was run?
A: Its IC50 is 1.16 µM.

Q: `CCC[C@H](NC)C(=O)N(C)[C@H]1CC[C@@H]2CN(S(=O)(=O)c3ccc(C(F)(F)F)cc3)C[C@@H]21` [Example 438, N^1,N^2-dimethyl-N^1-((3aR,4S,6aS)-2-{[4-(trifluoromethyl)phenyl]sulfonyl}octahydrocyclopenta[c]pyrrol-4-yl)-L-norvalinamide] was tested. Which IC50 did it give?
A: Its IC50 is 5.7 µM.

Q: How did the IC50 turn out when `O=C(N[C@H]1CC[C@H]2CN(Cc3cccc(C(F)(F)F)c3)C[C@H]21)C(C1CCCCC1)C1CCCCC1` (relative stereo) [Example 124, 2,2-dicyclohexyl-N-{(3aS*,4S*,6aR*)-2-[3-(trifluoromethyl)benzyl]octahydrocyclopenta[c]pyrrol-4-yl}acetamide] was run?
A: The IC50 was 1.07 µM.

Q: How did the IC50 turn out when `O=C(N[C@H]1CC[C@@H]2CN(c3cccc(C(F)(F)F)n3)C[C@@H]21)c1ccccc1F` [Example 563, 2-fluoro-N-{(3aR,4S,6aS)-2-[6-(trifluoromethyl)pyridin-2-yl]octahydrocyclopenta[c]pyrrol-4-yl}benzamide] was run?
A: Its IC50 is 1.32 µM.

Q: How did the IC50 turn out when `CN[C@@H](CC(C)C)C(=O)N[C@H]1CC[C@@H]2CN(c3cccnc3C(F)(F)F)C[C@@H]21` [Example 767, N^2-methyl-N-{(3aR,4S,6aS)-2-[2-(trifluoromethyl)pyridin-3-yl]octahydrocyclopenta[c]pyrrol-4-yl}-L-leucinamide] was run?
A: The IC50 was 6.93 µM.

Q: Which IC50 does the source give for `NCC(=O)N[C@H]1CC[C@@H]2CN(c3ccc(C(F)(F)F)cc3)C[C@@H]21` [Example 751, N-{(3aR,4S,6aS)-2-[4-(trifluoromethyl)phenyl]octahydrocyclopenta[c]pyrrol-4-yl}glycinamide] here?
A: The IC50 was > 3 µM.

Q: With `Cc1oncc1C(=O)N[C@H]1CC[C@@H]2CN(c3cccc(C(F)(F)F)n3)C[C@@H]21` [Example 581, 5-methyl-N-{(3aR,4S,6aS)-2-[6-(trifluoromethyl)pyridin-2-yl]octahydrocyclopenta[c]pyrrol-4-yl}-1,2-oxazole-4-carboxamide] as the molecule, how does the IC50 read?
A: The IC50 was 2.99 µM.

Q: How did the IC50 turn out when `CN[C@@H](CC(C)C)C(=O)N[C@H]1CC[C@@H]2CN(c3ccccc3F)C[C@@H]21` [Example 619, N-[(3aR,4S,6aS)-2-(2-fluorophenyl)octahydrocyclopenta[c]pyrrol-4-yl]-N^2-methyl-L-leucinamide] was run?
A: Its IC50 is 2.84 µM.

Q: For `Fc1cnc2[nH]cc(CN[C@H]3CC[C@@H]4CN(c5cccc(C(F)(F)F)n5)C[C@@H]43)c2c1` [Example 690, (3aR,4S,6aS)-N-[(5-fluoro-1H-pyrrolo[2,3-b]pyridin-3-yl)methyl]-2-[6-(trifluoromethyl)pyridin-2-yl]octahydrocyclopenta[c]pyrrol-4-amine], which IC50 is on record?
A: Its IC50 is 0.75 µM.

Q: Which IC50 does the source give for `FC(F)(F)c1cccc(N2C[C@H]3CC[C@H](NCc4cc5cccnc5s4)[C@H]3C2)n1` [Example 727, (3aR,4S,6aS)-N-(thieno[2,3-b]pyridin-2-ylmethyl)-2-[6-(trifluoromethyl)pyridin-2-yl]octahydrocyclopenta[c]pyrrol-4-amine] here?
A: The IC50 was 0.58 µM.

Q: With `CN[C@H](C(=O)N[C@H]1CC[C@@H]2CN(S(=O)(=O)c3cccc(C(F)(F)F)c3)C[C@@H]21)C(C)C` [Example 389, N^2-methyl-N^1-((3aR,4S,6aS)-2-{[3-(trifluoromethyl)phenyl]sulfonyl}octahydrocyclopenta[c]pyrrol-4-yl)-L-valinamide] as the molecule, how does the IC50 read?
A: The IC50 was 1.48 µM.

Q: `CC(C)(C)C[C@@H](C(=O)N[C@H]1CC[C@@H]2CN(S(=O)(=O)c3ccc(C(F)(F)F)cc3)C[C@@H]21)N(C1CC1)C1CC1` [Example 500, N^2,N^2-dicyclopropyl-4-methyl-N^1-((3aR,4S,6aS)-2-{[4-(trifluoromethyl)phenyl]sulfonyl}octahydrocyclopenta[c]pyrrol-4-yl)-L-leucinamide] was tested. Which IC50 did it give?
A: Its IC50 is 1.69 µM.

Q: How did the IC50 turn out when `Fc1ccc2[nH]c(CN[C@H]3CC[C@@H]4CN(c5cccc(OC(F)(F)F)c5)C[C@@H]43)cc2c1` [Example 715, (3aR,4S,6aS)-N-[(5-fluoro-1H-indol-2-yl)methyl]-2-[3-(trifluoromethoxy)phenyl]octahydrocyclopenta[c]pyrrol-4-amine] was run?
A: Its IC50 is 2.78 µM.

Q: With `O=C(N[C@H]1CC[C@@H]2CN(c3cccc(C(F)(F)F)n3)C[C@@H]21)[C@H](O)C(F)(F)F` [Example 585, (2S)-3,3,3-trifluoro-2-hydroxy-N-{(3aR,4S,6aS)-2-[6-(trifluoromethyl)pyridin-2-yl]octahydrocyclopenta[c]pyrrol-4-yl}propanamide] as the molecule, how does the IC50 read?
A: Its IC50 is 1.52 µM.

Q: For `Cc1cccc(CN2C[C@@H]3CC[C@H](NC(=O)C(C4CCCCC4)C4CCCCC4)[C@@H]3C2)c1` [Example 61, 2,2-dicyclohexyl-N-[(3aS,4S,6aR)-2-(3-methylbenzyl)octahydrocyclopenta[c]pyrrol-4-yl]acetamide], which IC50 is on record?
A: Its IC50 is 0.86 µM.

Same assay, conditions: read-out: IC50 (μM) or percent inhibition (* indicates 3 minute incubation, otherwise 60 minute); IC50; 60 minute pre-incubation with compound; IMR32 cells, 80 mM KCl depolarization

Q: `CC(C)C[C@@H](C(=O)N[C@H]1CC[C@H]2CN(Cc3cccc(C(F)(F)F)c3)C[C@H]21)N(C)C` [Example 509, N^2,N^2-dimethyl-N^1-{(3aS,4S,6aR)-2-[3-(trifluoromethyl)benzyl]octahydrocyclopenta[c]pyrrol-4-yl}-L-leucinamide] was tested. Which IC50 did it give?
A: Its IC50 is 4.55 µM.

Q: Which IC50 does the source give for `Cc1cccc(C)c1CN1C[C@H]2CC[C@H](NC(=O)C(c3ccccc3)C(C)C)[C@H]2C1` (stereo partly drawn) [Example 93, N-[(3aR,4S,6aS)-2-(2,6-dimethylbenzyl)octahydrocyclopenta[c]pyrrol-4-yl]-3-methyl-2-phenylbutanamide] here?
A: Its IC50 is 3.26 µM.

Q: For `O=S(=O)(c1cccc(C(F)(F)F)c1)N1C[C@H]2CC[C@H](NC(c3ccccc3)c3ccccc3)[C@H]2C1` [Example 468, (3aR,4S,6aS)-N-benzhydryl-2-{[3-(trifluoromethyl)phenyl]sulfonyl}octahydrocyclopenta[c]pyrrol-4-amine], which IC50 is on record?
A: The IC50 was 2.26 µM.

Q: With `CC[C@H](C(=O)N[C@@H]1CC[C@H]2CN(Cc3ccccc3)C[C@H]21)c1ccccc1` [Example 16, (2S)-N-[(3aS,4R,6aR)-2-benzyloctahydrocyclopenta[c]pyrrol-4-yl]-2-phenylbutanamide] as the molecule, how does the IC50 read?
A: Its IC50 is 9.75 µM.

Q: For `O=S(=O)(N[C@H]1CC[C@H]2CN(Cc3cccc(C(F)(F)F)c3)C[C@H]21)c1cccc(C(F)(F)F)c1` [Example 187, 3-(trifluoromethyl)-N-{(3aS,4S,6aR)-2-[3-(trifluoromethyl)benzyl]octahydrocyclopenta[c]pyrrol-4-yl}benzenesulfonamide], which IC50 is on record?
A: Its IC50 is 1.24 µM.

Q: `O=C(N[C@H]1CC[C@H]2CN(CCCc3ccccc3)C[C@H]21)C(C1CCCCC1)C1CCCCC1` [Example 69, 2,2-dicyclohexyl-N-[(3aS,4S,6aR)-2-(3-phenylpropyl)octahydrocyclopenta[c]pyrrol-4-yl]acetamide] was tested. Which IC50 did it give?
A: Its IC50 is 1.69 µM.

Q: Which IC50 does the source give for `CC(C)C[C@H](C(=O)N[C@H]1CC[C@H]2CN(Cc3cccc(C(F)(F)F)c3)C[C@H]21)N(C)C(=O)OC(C)(C)C` (relative stereo) [Example 139, N^2-(tert-butyloxycarbonyl)-N^2-methyl-N^1-{(3aS*,4S*,6aR*)-2-[3-(trifluoromethyl)benzyl]octahydrocyclopenta[c]pyrrol-4-yl}-D-leucinamide] here?
A: The IC50 was 1.01 µM.
